Test results: PMC6422671 (British Journal of Clinical Pharmacology, 2019)

Assay: Clinical laboratory findings: chemistry; data mean (standard deviation)
Assay type: in vivo, healthy men
Description: Data are mean (standard deviation).

C[C@@H](N)c1cc(Cl)ccc1Cn1c(=S)[nH]c(=O)c2[nH]ccc21 [AZD4831]
ALP (45 mg fed, 24 h): 0.993 (0.202) µkat L^–1 | ALT (45 mg fed, 24 h): 0.324 (0.125) µkat L^–1 | AST (45 mg fed, 24 h): 0.281 (0.048) µkat L^–1 | Albumin (45 mg fed, 24 h): 41.2 (3.8) g L^–1 | Bilirubin (45 mg fed, 24 h): 9.7 (0.6) µmol L^–1 | CRP (45 mg fed, 24 h): 0.42 (0.20) mg L^–1 | Calcium (45 mg fed, 24 h): 2.30 (0.10) mmol L^–1 | Creatinine (45 mg fed, 24 h): 71.2 (11.4) µmol L^–1 | GGT (45 mg fed, 24 h): 0.310 (0.053) µkat L^–1 | Glucose (45 mg fed, 24 h): 5.06 (0.38) mmol L^–1 | Phosphate (45 mg fed, 24 h): 1.10 (0.08) mmol L^–1 | Potassium (45 mg fed, 24 h): 4.28 (0.26) mmol L^–1 | Sodium (45 mg fed, 24 h): 139.6 (1.6) mmol L^–1 | Urea (45 mg fed, 24 h): 4.04 (0.45) mmol L^–1 | ALP (45 mg fed, 48 h): 1.004 (0.205) µkat L^–1 | ALT (45 mg fed, 48 h): 0.325 (0.119) µkat L^–1 | AST (45 mg fed, 48 h): 0.296 (0.053) µkat L^–1 | Albumin (45 mg fed, 48 h): 42.1 (3.4) g L^–1 | Bilirubin (45 mg fed, 48 h): 9.5 (1.3) µmol L^–1 | CRP (45 mg fed, 48 h): 0.42 (0.22) mg L^–1 | Calcium (45 mg fed, 48 h): 2.33 (0.07) mmol L^–1 | Creatinine (45 mg fed, 48 h): 70.9 (9.3) µmol L^–1 | GGT (45 mg fed, 48 h): 0.303 (0.051) µkat L^–1 | Glucose (45 mg fed, 48 h): 5.27 (0.13) mmol L^–1 | Phosphate (45 mg fed, 48 h): 1.09 (0.05) mmol L^–1 | Potassium (45 mg fed, 48 h): 4.27 (0.05) mmol L^–1 | Sodium (45 mg fed, 48 h): 140.1 (1.4) mmol L^–1 | Urea (45 mg fed, 48 h): 4.19 (0.41) mmol L^–1 | ALP (45 mg fed, follow up): 1.103 (0.265) µkat L^–1 | ALT (45 mg fed, follow up): 0.364 (0.151) µkat L^–1 | AST (45 mg fed, follow up): 0.358 (0.049) µkat L^–1 | Albumin (45 mg fed, follow up): 44.1 (3.2) g L^–1 | Bilirubin (45 mg fed, follow up): 9.6 (2.3) µmol L^–1 | CRP (45 mg fed, follow up): 2.35 (3.10) mg L^–1 | Calcium (45 mg fed, follow up): 2.34 (0.08) mmol L^–1 | Creatinine (45 mg fed, follow up): 74.6 (5.0) µmol L^–1 | GFR (45 mg fed, follow up): 109 (15) mL min^–1 1.73m^–2 | GGT (45 mg fed, follow up): 0.316 (0.087) µkat L^–1 | Glucose (45 mg fed, follow up): 5.18 (0.25) mmol L^–1 | Phosphate (45 mg fed, follow up): 1.08 (0.11) mmol L^–1 | Potassium (45 mg fed, follow up): 4.34 (0.20) mmol L^–1 | Sodium (45 mg fed, follow up): 139.6 (0.6) mmol L^–1 | Urea (45 mg fed, follow up): 4.18 (0.78) mmol L^–1 | ALP (135 mg fasted, 24 h): 1.128 (0.226) µkat L^–1 | ALT (135 mg fasted, 24 h): 0.323 (0.137) µkat L^–1 | AST (135 mg fasted, 24 h): 0.304 (0.076) µkat L^–1 | Albumin (135 mg fasted, 24 h): 43.4 (2.4) g L^–1 | Bilirubin (135 mg fasted, 24 h): 12.2 (4.3) µmol L^–1 | CRP (135 mg fasted, 24 h): 0.60 (0.30) mg L^–1 | Calcium (135 mg fasted, 24 h): 2.36 (0.08) mmol L^–1 | Creatinine (135 mg fasted, 24 h): 83.6 (8.7) µmol L^–1 | GGT (135 mg fasted, 24 h): 0.318 (0.171) µkat L^–1 | Glucose (135 mg fasted, 24 h): 4.74 (0.58) mmol L^–1 | Phosphate (135 mg fasted, 24 h): 1.06 (0.23) mmol L^–1 | Potassium (135 mg fasted, 24 h): 4.11 (0.11) mmol L^–1 | Sodium (135 mg fasted, 24 h): 139.8 (0.7) mmol L^–1 | Urea (135 mg fasted, 24 h): 4.50 (0.56) mmol L^–1 | ALP (135 mg fasted, 48 h): 1.175 (0.250) µkat L^–1 | ALT (135 mg fasted, 48 h): 0.325 (0.191) µkat L^–1 | AST (135 mg fasted, 48 h): 0.308 (0.101) µkat L^–1 | Albumin (135 mg fasted, 48 h): 43.9 (2.8) g L^–1 | Bilirubin (135 mg fasted, 48 h): 11.6 (3.5) µmol L^–1 | CRP (135 mg fasted, 48 h): 0.50 (0.26) mg L^–1 | Calcium (135 mg fasted, 48 h): 2.37 (0.07) mmol L^–1 | Creatinine (135 mg fasted, 48 h): 81.0 (9.1) µmol L^–1 | GGT (135 mg fasted, 48 h): 0.325 (0.161) µkat L^–1 | Glucose (135 mg fasted, 48 h): 4.75 (0.37) mmol L^–1 | Phosphate (135 mg fasted, 48 h): 1.01 (0.19) mmol L^–1 | Potassium (135 mg fasted, 48 h): 4.06 (0.17) mmol L^–1 | Sodium (135 mg fasted, 48 h): 140.3 (1.4) mmol L^–1 | Urea (135 mg fasted, 48 h): 4.24 (0.74) mmol L^–1 | ALP (135 mg fasted, follow up): 1.239 (0.208) µkat L^–1 | ALT (135 mg fasted, follow up): 0.299 (0.129) µkat L^–1 | AST (135 mg fasted, follow up): 0.332 (0.064) µkat L^–1 | Albumin (135 mg fasted, follow up): 46.0 (2.6) g L^–1 | Bilirubin (135 mg fasted, follow up): 13.1 (5.1) µmol L^–1 | CRP (135 mg fasted, follow up): 8.94 (12.69) mg L^–1 | Calcium (135 mg fasted, follow up): 2.36 (0.11) mmol L^–1 | Creatinine (135 mg fasted, follow up): 85.1 (12.7) µmol L^–1 | GFR (135 mg fasted, follow up): 104 (22) mL min^–1 1.73m^–2 | GGT (135 mg fasted, follow up): 0.306 (0.143) µkat L^–1 | Glucose (135 mg fasted, follow up): 4.71 (0.54) mmol L^–1 | Phosphate (135 mg fasted, follow up): 1.00 (0.21) mmol L^–1 | Potassium (135 mg fasted, follow up): 4.07 (0.20) mmol L^–1 | Sodium (135 mg fasted, follow up): 140.2 (2.1) mmol L^–1 | Urea (135 mg fasted, follow up): 4.15 (1.35) mmol L^–1 | ALP (405 mg fasted, 24 h): 0.958 (0.139) µkat L^–1 | ALT (405 mg fasted, 24 h): 0.338 (0.119) µkat L^–1 | AST (405 mg fasted, 24 h): 0.363 (0.077) µkat L^–1 | Albumin (405 mg fasted, 24 h): 43.7 (2.3) g L^–1 | Bilirubin (405 mg fasted, 24 h): 14.9 (2.3) µmol L^–1 | CRP (405 mg fasted, 24 h): 1.17 (1.28) mg L^–1 | Calcium (405 mg fasted, 24 h): 2.39 (0.06) mmol L^–1 | Creatinine (405 mg fasted, 24 h): 86.2 (14.7) µmol L^–1 | GGT (405 mg fasted, 24 h): 0.298 (0.146) µkat L^–1 | Glucose (405 mg fasted, 24 h): 4.77 (0.30) mmol L^–1 | Phosphate (405 mg fasted, 24 h): 1.07 (0.11) mmol L^–1 | Potassium (405 mg fasted, 24 h): 4.42 (0.31) mmol L^–1 | Sodium (405 mg fasted, 24 h): 139.2 (1.0) mmol L^–1 | Urea (405 mg fasted, 24 h): 4.55 (1.01) mmol L^–1 | ALP (405 mg fasted, 48 h): 0.947 (0.186) µkat L^–1 | ALT (405 mg fasted, 48 h): 0.351 (0.097) µkat L^–1 | AST (405 mg fasted, 48 h): 0.366 (0.075) µkat L^–1 | Albumin (405 mg fasted, 48 h): 44.2 (2.7) g L^–1 | Bilirubin (405 mg fasted, 48 h): 13.4 (2.1) µmol L^–1 | CRP (405 mg fasted, 48 h): 1.19 (1.17) mg L^–1 | Calcium (405 mg fasted, 48 h): 2.40 (0.06) mmol L^–1 | Creatinine (405 mg fasted, 48 h): 81.1 (13.0) µmol L^–1 | GGT (405 mg fasted, 48 h): 0.290 (0.133) µkat L^–1 | Glucose (405 mg fasted, 48 h): 4.88 (0.35) mmol L^–1 | Phosphate (405 mg fasted, 48 h): 1.06 (0.15) mmol L^–1 | Potassium (405 mg fasted, 48 h): 4.33 (0.33) mmol L^–1 | Sodium (405 mg fasted, 48 h): 139.6 (1.0) mmol L^–1 | Urea (405 mg fasted, 48 h): 4.68 (1.07) mmol L^–1 | ALP (405 mg fasted, follow up): 1.037 (0.190) µkat L^–1 | ALT (405 mg fasted, follow up): 0.346 (0.071) µkat L^–1 | AST (405 mg fasted, follow up): 0.398 (0.062) µkat L^–1 | Albumin (405 mg fasted, follow up): 46.6 (2.7) g L^–1 | Bilirubin (405 mg fasted, follow up): 13.2 (3.1) µmol L^–1 | CRP (405 mg fasted, follow up): 1.17 (0.86) mg L^–1 | Calcium (405 mg fasted, follow up): 2.43 (0.10) mmol L^–1 | Creatinine (405 mg fasted, follow up): 81.1 (12.2) µmol L^–1 | GFR (405 mg fasted, follow up): 104 (12) mL min^–1 1.73m^–2 | GGT (405 mg fasted, follow up): 0.298 (0.137) µkat L^–1 | Glucose (405 mg fasted, follow up): 4.63 (0.39) mmol L^–1 | Phosphate (405 mg fasted, follow up): 1.12 (0.17) mmol L^–1 | Potassium (405 mg fasted, follow up): 4.39 (0.18) mmol L^–1 | Sodium (405 mg fasted, follow up): 141.5 (2.6) mmol L^–1 | Urea (405 mg fasted, follow up): 3.87 (0.96) mmol L^–1 | changes in clinical chemistry, haematology or urinary parameters (except serum uric acid at 135 mg or 405 mg): no systemic or dose‐related changes
